Reference: US11147272B2, “Pyridone compounds and agricultural and horticultural fungicides comprising the same as active ingredients” (MITSUI CHEMICALS AGRO, INC., priority 2017, dated 2021)

Assays:
[1] = tested on: Magnaporthe grisea; assay: whole plant or invertebrate; type: in vivo; settings: 250 ppm drug solution sprayed on test plant
[2] = tested on: Alternaia brassicicola; assay: Test Example C: Alternaria sooty spot on cabbage; type: in vivo; settings: 250 ppm drug solution sprayed on test plant
Excerpt: Seeds of a test plant (cabbage variety: Shikidori) were planted and cultivated until the cotyledons extended.
<Control Value> Control value=100{1−(n/3)}

[3] = tested on: Puccinia recondita; assay: Test Example E: Brown rust on wheat; type: in vivo; settings: 250 ppm drug solution sprayed on test plant
[4] = tested on: Phytophthora infestans; assay: whole plant or invertebrate; type: in vivo; settings: 250 ppm drug solution sprayed on test plant
[5] = tested on: Botrytis cinerea; assay: Test Example B: Gray mold on tomato; settings: 250 ppm drug solution sprayed on test plant
[6] = tested on: Plasmopara viticola; assay: Test Example G: Downy mildew on vine; settings: 250 ppm drug solution sprayed (2.5 ml/pot), grape Neomuscat, 7 to 10 days after inoculation
[7] = tested on: Colletotrichum orbiculare; assay: Test Example H: Anthracnose on cucumber; settings: 250 ppm drug solution sprayed (2.5 ml/pot), cucumber Sagami Hanjiro, 6 to 10 days after inoculation
[8] = tested on: Blumeria graminis f. sp. hordei; assay: Test Example D: Powdery mildew on barley; settings: 250 ppm drug solution sprayed on test plant

| Structure (SMILES) | Test A control value [1] | Test C control value [2] | Test E control value [3] | Test F control value [4] | Test B control value [5] | Test G control value [6] | Test H control value [7] | Test D control value [8] |
| --- | --- | --- | --- | --- | --- | --- | --- | --- |
| CCCc1cc(Br)c(=O)n(CC(F)F)c1-c1c(F)cccc1F [compound 493] | H (more than 50% control value) | H (more than 50% control value) | H (more than 50% control value) | L (50% or less control value) | H (more than 50% control value) | H (more than 50% control value) | H (more than 50% control value) | H (more than 50% control value) |
| CCCc1cc(I)c(=O)n(CC(F)F)c1-c1c(F)cccc1F [compound 494] | H (more than 50% control value) | H (more than 50% control value) | H (more than 50% control value) | L (50% or less control value) | H (more than 50% control value) | H (more than 50% control value) | H (more than 50% control value) | H (more than 50% control value) |
| CCC(=O)c1cc(Cl)c(=O)n(C)c1-c1c(F)cc(F)cc1F [compound 495] | L (50% or less control value) | H (more than 50% control value) | H (more than 50% control value) | L (50% or less control value) | H (more than 50% control value) | L (50% or less control value) | L (50% or less control value) | H (more than 50% control value) |
| COC(c1cc(Cl)c(=O)n(C)c1-c1c(F)cc(F)cc1F)C(C)C (stereo not shown) [compound 496] | H (more than 50% control value) | H (more than 50% control value) | H (more than 50% control value) | L (50% or less control value) | H (more than 50% control value) | H (more than 50% control value) | H (more than 50% control value) | H (more than 50% control value) |
| CCOC(c1cc(Cl)c(=O)n(C)c1-c1c(F)cc(F)cc1F)C(C)C (stereo not shown) [compound 497] | H (more than 50% control value) | H (more than 50% control value) | H (more than 50% control value) | L (50% or less control value) | H (more than 50% control value) | H (more than 50% control value) | H (more than 50% control value) | H (more than 50% control value) |
| COc1cc(F)c(-c2c(C(OC)C(C)C)cc(Cl)c(=O)n2C)c(F)c1 (stereo not shown) [compound 498] | H (more than 50% control value) | H (more than 50% control value) | H (more than 50% control value) | L (50% or less control value) | H (more than 50% control value) | L (50% or less control value) | H (more than 50% control value) | L (50% or less control value) |
| CCOC(c1cc(Cl)c(=O)n(C)c1-c1c(F)cc(OC)cc1F)C(C)C (stereo not shown) [compound 499] | H (more than 50% control value) | H (more than 50% control value) | H (more than 50% control value) | L (50% or less control value) | H (more than 50% control value) | H (more than 50% control value) | H (more than 50% control value) | H (more than 50% control value) |
| CCn1c(-c2c(F)cc(OC)cc2F)c(C(C)(O)CC)cc(Br)c1=O (stereo not shown) [compound 500] | H (more than 50% control value) | H (more than 50% control value) | H (more than 50% control value) | L (50% or less control value) | H (more than 50% control value) | H (more than 50% control value) | H (more than 50% control value) | L (50% or less control value) |
| CCn1c(-c2c(F)cc(F)cc2F)c(C(OC)C(C)C)cc(Br)c1=O (stereo not shown) [compound 501] | H (more than 50% control value) | H (more than 50% control value) | H (more than 50% control value) | L (50% or less control value) | H (more than 50% control value) | L (50% or less control value) | H (more than 50% control value) | H (more than 50% control value) |
| CCC(OC)c1cc(Cl)c(=O)n(C)c1-c1c(F)cc(F)cc1F (stereo not shown) [compound 502] | H (more than 50% control value) | H (more than 50% control value) | H (more than 50% control value) | L (50% or less control value) | H (more than 50% control value) | H (more than 50% control value) | H (more than 50% control value) | H (more than 50% control value) |
| CCn1c(-c2c(F)cc(OC)cc2F)c(C(OC)C(C)C)cc(Br)c1=O (stereo not shown) [compound 503] | H (more than 50% control value) | H (more than 50% control value) | H (more than 50% control value) | L (50% or less control value) | H (more than 50% control value) | H (more than 50% control value) | H (more than 50% control value) | H (more than 50% control value) |
| CCC(OC)c1cc(Br)c(=O)n(CC)c1-c1c(F)cc(F)cc1F (stereo not shown) [compound 504] | H (more than 50% control value) | H (more than 50% control value) | H (more than 50% control value) | L (50% or less control value) | H (more than 50% control value) | H (more than 50% control value) | H (more than 50% control value) | H (more than 50% control value) |
| CCC(C)(O)c1cc(Cl)c(=O)n(C)c1-c1c(F)cc(F)cc1F (stereo not shown) [compound 505] | H (more than 50% control value) | H (more than 50% control value) | H (more than 50% control value) | L (50% or less control value) | H (more than 50% control value) | H (more than 50% control value) | H (more than 50% control value) | H (more than 50% control value) |
| CCC(OC)c1cc(Cl)c(=O)n(C)c1-c1c(F)cc(OC)cc1F (stereo not shown) [compound 506] | H (more than 50% control value) | H (more than 50% control value) | H (more than 50% control value) | L (50% or less control value) | H (more than 50% control value) | H (more than 50% control value) | H (more than 50% control value) | H (more than 50% control value) |
| CCC(OC)c1cc(Br)c(=O)n(CC)c1-c1c(F)cc(OC)cc1F (stereo not shown) [compound 507] | H (more than 50% control value) | H (more than 50% control value) | H (more than 50% control value) | L (50% or less control value) | H (more than 50% control value) | H (more than 50% control value) | H (more than 50% control value) | H (more than 50% control value) |
| CCC(C)(OC)c1cc(Cl)c(=O)n(C)c1-c1c(F)cc(F)cc1F (stereo not shown) [compound 508] | H (more than 50% control value) | H (more than 50% control value) | H (more than 50% control value) | L (50% or less control value) | H (more than 50% control value) | H (more than 50% control value) | H (more than 50% control value) | H (more than 50% control value) |
| CCOC(C)(CC)c1cc(Cl)c(=O)n(C)c1-c1c(F)cc(F)cc1F (stereo not shown) [compound 509] | H (more than 50% control value) | L (50% or less control value) | H (more than 50% control value) | L (50% or less control value) | L (50% or less control value) | H (more than 50% control value) | H (more than 50% control value) | H (more than 50% control value) |
